Measured values reported in US20240245696A1, “INHIBITORS OF DNA PK AND USES THEREOF” (BioVentures, LLC, priority 2017, published 2024).
Entries after “also recorded” stand apart in the source; their conditions may differ.

Columns and labels:
[1] = tested on: IL-2; assay: Secreted IL-2 ELISA, Jurkat cells stimulated with anti-CD28/CD3 dynabeads; type: cell-based, human; conditions: anti-CD28/CD3 dynabeads 1:1 ratio, 24 hours
Description: Detection of secreted IL-2: Secreted IL-2 was detected by Human IL-2 ELISA Kit from Thermo Scientific (Waltham, MA). The manufacturer's protocol was followed. Prior to harvesting, cells were treated with PHA (50 ng/ml) and PMA (1 μg/mL) for 24 hours with or without the NU7441 inhibitor. Jurkat cells stimulated with the anti-CD28/CD3 dynabeads were done so according to the manufacturer's protocol at a 1:1 ratio for 24 hours prior to harvesting. After stimulation, supernatant samples of Jurkat cells or PBMCs (2 million cells/mL) were collected and diluted 10 times before the assay. IL-2 standards and samples (50 μL) and Biotinylated antibody reagents (50 μL) were added to each well and the plate was incubated for 3 hours at room temperature. The plate was washed 3 times and 100 μL of Streptavidin-HRP solution was added. After 30 minutes of incubation at room temperature, the plate was washed 3 times. TMB substrate (100 μL) was added and incubated for 30 minutes in the dark at room temperature. Stop solution was added and the absorbance of each well was read at 450 nm using the plate reader.

[2] = tested on: NFAT; assay: Western blot of phosphorylated NFAT (s237) in activated Jurkat cells; type: cell-based, human; conditions: Jurkat activated with PMA+PHA
Description: Cell Culture: Human peripheral blood mononuclear cells (PBMC,) and Jurkat cells were purchased from ATCC (PCS-800-011, Manassas, VA). Cells were maintained at 37° C. in a humidified atmosphere composed of 5% CO2. Jurkat cells were cultured in RPMI 1640 medium which was supplemented with 10% FCS and human PBMC was cultured in RPMI 1640 medium which was supplemented with 10% FCS and pen/strep. Both Jurkat cells and PBMC were stimulated with PHA (50 ng/mL) and PMA (1 μg/mL) for 24 hours prior to harvesting for IL-2 detection or 6 hours prior for western blot analysis. The NU7441 DNA-PKcs inhibitor was added at varying concentrations at the time of stimulation.
Cell lysis and nuclear extract: Cells were washed with cold PBS twice and centrifuged at 5000 rpm for 5 minutes. For the nuclear extract, pellets were suspended with 800 μL of 10 mN HEPES lysis buffer (10 mM HEPES at pH 7.9, 10 mM KCl, 1 mM DTT, and 1× protease and phosphatase inhibitor) and incubated on ice for 15 minutes. 50 μL of NP-40 (10% in water) was added and the pellets were mixed for 10 seconds. Lysates were centrifuged for 5 minutes at 4° C. at 13,000 rpm. […]

[3] = tested on: skin allograft mouse model; assay: Mouse skin allograft; type: in vivo
Description: Materials: DNA-PK inhibitor, NU7441 was purchased from Selleckchem.com and used in vivo at 10 mg/kg diluted in DMSO and 40% PEG or in vitro at 5 μM. Tacrolimus (FK506) was ordered for Sigma Aldrich and used at a concentration of 1 mg/kg in vivo.
Mouse skin allograft: To confirm that DNA-PK inhibitors could function as an immunosuppressant in vivo, mouse skin allograft studies were performed. All studies were performed under an approved IACUC protocol. Ears from donor BALBc mice were removed and split into two removing all cartilaginous material. The ear skin was placed on an incision made to the back of a recipient C57BI6 or DNA-PK knockout (NOD.CB17-Prkdc scid/J-20) mouse. The skin was sutured in 4 places using 6-0 nylon sutures. Wounds were wrapped in gauze and ban-daids and allowed to heal for 6 days before removing the bandage. Spleens were harvested from donor mice for splenocyte isolation. On Day 0 through Day 10 (the day of sacrifice) mice were injected (100 ul) daily with one of the following: saline, Tacrolimus (1 mg/kg), or NU7441 ([…]). Mice were monitored for rejection daily which was indicated by dark, black appearance. At the time of sacrifice, mice were euthanisized according to IACUC guidelines and skin grafts removed and fixed in formalin for histology. Spleens and blood were also collected.

[4] = tested on: IL-2; assay: qPCR of IL-2 expression in stimulated Jurkat cells; type: cell-based, human; conditions: PHA+PMA stimulation
Description: Evaluation of PD-1 and IL-2 expression: The effect of NU7441 on the expression of PD-1, a protein with immunosuppressant function, and IL-2 was examined in Jurkat cells following stimulation with PHA+PMA and treatment with the inhibitor NU7441. qPCR analysis was performed using primers specific for PD1 and IL-2 sequences.

[5] = tested on: Th1 T cells; assay: qPCR on T cell markers, Th1 differentiation of naïve CD4+ T cells; type: cell-based; conditions: naïve CD4+ T cells from mouse spleens
Description: qPCR on T cell markers: Naïve CD4+ T cells were isolated by standard methods from the spleens of Balbc mice. T cells were grown in culture and treated with cytokines specific for differentiate into Th1 and Th17 subtypes. Additionally, T cells were cultured with NU7441 and FK506. qPCR was performed looking at the following markers: Batf3, RORyt, IL17, IL22, TGFBeta, Lymphotoxin, T-Bet.

## O=c1cc(N2CCOCC2)oc2c(-c3cccc4c3sc3ccccc34)cccc12 [NU7441]
[1]
  IL-2 production: significantly blocked IL-2 production; also recorded: inhibited
[2]
  NFAT phosphorylation at s237: remained phosphorylated; also recorded: inhibited the dephosphorylation of NFAT
[3]; Day 10, BALBc donor skin on C57BI6 recipient, daily injection Day 0 through Day 10
  level of necrosis of skin graft, average: around 30%
[3]; compared to control groups treated only with saline
  rejection in skin allograft mouse model: reduces rejection
[3]; treatment groups vs saline groups (severe necrosis)
  visual examination of graft necrosis: majority with 0% necrosis
[4]
  IL-2 expression: reduced
[5]
  Th1 differentiation (markers T-Bet, Lymphotoxin): promoting the expression of Th1 T cells
